Assays:
Settings in all cases: 72 h
U2OS [1] = assay: drug sensitivity score (DSS) for viability; higher = more toxic; extreme values may be limits of the assay
HepG2 [2] = assay: as above
Caco-2 [3] = assay: as above
Vero E6 [4] = assay: as above
Calu-3 [5] = assay: as above
U2OS [6] = assay: cell viability relative to DMSO; higher = less toxic
HepG2 [7] = assay: as above
Caco-2 [8] = assay: as above
Vero E6 [9] = assay: as above
Calu-3 [10] = assay: as above
U2OS [11] = assay: relative viability EC50 (midpoint between 100% and the lowest measured viability); higher = less toxic
HepG2 [12] = assay: as above
Caco-2 [13] = assay: as above
Vero E6 [14] = assay: as above
Calu-3 [15] = assay: as above

Structure (SMILES) | drug sensitivity score (U2OS [1]) | drug sensitivity score (HepG2 [2]) | drug sensitivity score (Caco-2 [3]) | drug sensitivity score (Vero E6 [4]) | drug sensitivity score (Calu-3 [5]) | cell viability (U2OS [6]; 1 nM) [%] | cell viability (U2OS [6]; 10 nM) [%] | cell viability (U2OS [6]; 100 nM) [%] | cell viability (U2OS [6]; 1000 nM) [%] | cell viability (U2OS [6]; 10000 nM) [%] | cell viability (HepG2 [7]; 1 nM) [%] | cell viability (HepG2 [7]; 10 nM) [%] | cell viability (HepG2 [7]; 100 nM) [%] | cell viability (HepG2 [7]; 1000 nM) [%] | cell viability (HepG2 [7]; 10000 nM) [%] | cell viability (Caco-2 [8]; 1 nM) [%] | cell viability (Caco-2 [8]; 10 nM) [%] | cell viability (Caco-2 [8]; 100 nM) [%] | cell viability (Caco-2 [8]; 1000 nM) [%] | cell viability (Caco-2 [8]; 10000 nM) [%] | cell viability (Vero E6 [9]; 1 nM) [%] | cell viability (Vero E6 [9]; 10 nM) [%] | cell viability (Vero E6 [9]; 100 nM) [%] | cell viability (Vero E6 [9]; 1000 nM) [%] | cell viability (Vero E6 [9]; 10000 nM) [%] | cell viability (Calu-3 [10]; 1 nM) [%] | cell viability (Calu-3 [10]; 10 nM) [%] | cell viability (Calu-3 [10]; 100 nM) [%] | cell viability (Calu-3 [10]; 1000 nM) [%] | cell viability (Calu-3 [10]; 10000 nM) [%] | relative viability EC50 (U2OS [11]) [µM] | relative viability EC50 (HepG2 [12]) [µM] | relative viability EC50 (Caco-2 [13]) [µM] | relative viability EC50 (Vero E6 [14]) [µM] | relative viability EC50 (Calu-3 [15]) [µM]
O=C(CCCCCCNC(=O)c1cnc(N(c2ccccc2)c2ccccc2)nc1)NO [ACY-1215] | 5.6 | 7 | 4.9 | 3.2 | 6 | 102 | 101 | 107 | 88.6 | 33.3 | 96.5 | 108 | 87.3 | 86 | 16.2 | 108 | 92.8 | 106 | 94.3 | 27.2 | 92.9 | 100 | 94.2 | 96.9 | 47.7 | 107 | 93.5 | 100 | 82 | 38.6 | 1.87 | 1.89 | 2.53 | 2.7 | 1.42
CCN1CCN(Cc2ccc(-c3cc4c(N[C@H](C)c5ccccc5)ncnc4[nH]3)cc2)CC1 [AEE788] | 5.1 | 0.2 | 2.4 | 10.9 | 13.7 | 98.7 | 95.7 | 97.8 | 86.7 | 44.7 | 109 | 95.4 | 98.1 | 110 | 82.5 | 89.5 | 91.9 | 94.8 | 81.9 | 78 | 97.6 | 94.7 | 82.2 | 54.4 | 27.1 | 100 | 103 | 84.9 | 38.1 | 3.7 | 1.58 | > 10 | > 10 | 0.435 | 0.548
Cc1c(CN(C)C(=O)/C=C/c2cnc3c(c2)CCC(=O)N3)oc2ccccc12 [AFN-1252] | 0 | 0 | 0 | 0 | 0 | 97.9 | 101 | 98.5 | 101 | 102 | 110 | 92.6 | 106 | 90.2 | 110 | 95 | 93.1 | 99 | 101 | 97.1 | 94.2 | 87.9 | 93.6 | 91.3 | 97.7 | 103 | 98.5 | 102 | 108 | 98.1 | > 10 | > 10 | > 10 | > 10 | > 10

— the supplement of paper PMC13380429
